# System: patients with advanced solid tumors
# Experiment: Treatment-related adverse events graded by NCI-CTC v3.0
# Format: in vivo, human
# Method: Medical records and laboratory tests were obtained during screening. Physical examination, routine laboratory evaluations, and performance status were assessed at baseline and at specified time points throughout the trial. AEs and concomitant medications were recorded at the end of each cycle. The safety evaluation period extended through 30 days from the last dose of study drug or through recovery to grade 1 or better from all acute toxicities associated with drug administration. Toxicity was evaluated and graded according to the NCI-CTC for Adverse Events, version 3.0.
smiles,measurement,setting,value
N#CC1(c2ccc(NC(=O)c3cccnc3NCc3ccncc3)cc2)CCCC1 [apatinib],"Anemia grade 1-2, %",250 mg cohort,25.0%
same,"Anemia grade 1-2, No.",250 mg cohort,1
same,"Hyperbilirubinemia grade 3-4, %",250 mg cohort,25%
same,"Hyperbilirubinemia grade 3-4, No.",250 mg cohort,1
same,"Hypertension grade 1-2, %",250 mg cohort,50%
same,"Hypertension grade 1-2, No.",250 mg cohort,2
same,"Infection grade 1-2, %",250 mg cohort,25.0%
same,"Infection grade 1-2, No.",250 mg cohort,1
same,"Proteinuria grade 3-4, %",250 mg cohort,25.0%
same,"Proteinuria grade 3-4, No.",250 mg cohort,1
same,"Thrombocytopenia grade 1-2, %",250 mg cohort,25.0%
same,"Thrombocytopenia grade 1-2, No.",250 mg cohort,1
same,"Transaminase Increased grade 1-2, %",250 mg cohort,50.0%
same,"Transaminase Increased grade 1-2, No.",250 mg cohort,2
same,"Anemia grade 1-2, %",500 mg cohort,9%
same,"Anemia grade 1-2, No.",500 mg cohort,1
same,"Anorexia grade 1-2, %",500 mg cohort,18.2%
same,"Anorexia grade 1-2, No.",500 mg cohort,2
same,"Diarrhea grade 1-2, %",500 mg cohort,9%
same,"Diarrhea grade 1-2, No.",500 mg cohort,1
same,"Fatigue grade 1-2, %",500 mg cohort,9%
same,"Fatigue grade 1-2, No.",500 mg cohort,1
same,"Hand-Food Syndrome grade 1-2, %",500 mg cohort,36.4%
same,"Hand-Food Syndrome grade 1-2, No.",500 mg cohort,4
same,"Hand-Food Syndrome grade 3-4, %",500 mg cohort,9%
same,"Hand-Food Syndrome grade 3-4, No.",500 mg cohort,1
same,"Hemorrhage grade 1-2, %",500 mg cohort,36.4%
same,"Hemorrhage grade 1-2, No.",500 mg cohort,4
same,"Hemorrhage grade 3-4, %",500 mg cohort,9%
same,"Hemorrhage grade 3-4, No.",500 mg cohort,1
same,"Hoarseness grade 1-2, %",500 mg cohort,9%
same,"Hoarseness grade 1-2, No.",500 mg cohort,1
same,"Hypertension grade 1-2, %",500 mg cohort,63.6%
same,"Hypertension grade 1-2, No.",500 mg cohort,7
same,"Infection grade 1-2, %",500 mg cohort,9%
same,"Infection grade 1-2, No.",500 mg cohort,1
same,"Mucosal ulcers grade 1-2, %",500 mg cohort,18.2%
same,"Mucosal ulcers grade 1-2, No.",500 mg cohort,2
same,"Neutropenia grade 1-2, %",500 mg cohort,18.2%
same,"Neutropenia grade 1-2, No.",500 mg cohort,2
same,"Neutropenia grade 3-4, %",500 mg cohort,18.2%
same,"Neutropenia grade 3-4, No.",500 mg cohort,2
same,"Pain grade 1-2, %",500 mg cohort,36.4%
same,"Pain grade 1-2, No.",500 mg cohort,4
same,"Pain grade 3-4, %",500 mg cohort,18.2%
same,"Pain grade 3-4, No.",500 mg cohort,2
same,"Proteinuria grade 1-2, %",500 mg cohort,36.4%
same,"Proteinuria grade 1-2, No.",500 mg cohort,4
same,"Proteinuria grade 3-4, %",500 mg cohort,9%
same,"Proteinuria grade 3-4, No.",500 mg cohort,1
same,"Rash grade 1-2, %",500 mg cohort,9%
same,"Rash grade 1-2, No.",500 mg cohort,1
same,"Thrombocytopenia grade 1-2, %",500 mg cohort,18.2%
same,"Thrombocytopenia grade 1-2, No.",500 mg cohort,2
same,"Thrombocytopenia grade 3-4, %",500 mg cohort,0%
same,"Thrombocytopenia grade 3-4, No.",500 mg cohort,0
same,"Transaminase Increased grade 1-2, %",500 mg cohort,9%
same,"Transaminase Increased grade 1-2, No.",500 mg cohort,1
same,"Transaminase Increased grade 3-4, %",500 mg cohort,9%
same,"Transaminase Increased grade 3-4, No.",500 mg cohort,1
same,"Vomiting grade 1-2, %",500 mg cohort,0%
same,"Vomiting grade 1-2, No.",500 mg cohort,0
same,"Albinism grade 1-2, %",750 mg cohort,6.7%
same,"Albinism grade 1-2, No.",750 mg cohort,1
same,"Anemia grade 1-2, %",750 mg cohort,20%
same,"Anemia grade 1-2, No.",750 mg cohort,3
same,"Anorexia grade 1-2, %",750 mg cohort,20%
same,"Anorexia grade 1-2, No.",750 mg cohort,3
same,"Diarrhea grade 1-2, %",750 mg cohort,20%
same,"Diarrhea grade 1-2, No.",750 mg cohort,3
same,"Fatigue grade 1-2, %",750 mg cohort,26.7%
same,"Fatigue grade 1-2, No.",750 mg cohort,4
same,"Fatigue grade 3-4, %",750 mg cohort,6.7%
same,"Fatigue grade 3-4, No.",750 mg cohort,1
same,"Hand-Food Syndrome grade 1-2, %",750 mg cohort,46.7%
same,"Hand-Food Syndrome grade 1-2, No.",750 mg cohort,7
same,"Hand-Food Syndrome grade 3-4, %",750 mg cohort,13.3%
same,"Hand-Food Syndrome grade 3-4, No.",750 mg cohort,2
same,"Hemorrhage grade 1-2, %",750 mg cohort,33.3%
same,"Hemorrhage grade 1-2, No.",750 mg cohort,5
same,"Hoarseness grade 1-2, %",750 mg cohort,13.3%
same,"Hoarseness grade 1-2, No.",750 mg cohort,2
same,"Hypertension grade 1-2, %",750 mg cohort,60%
same,"Hypertension grade 1-2, No.",750 mg cohort,9
same,"Hypertension grade 3-4, %",750 mg cohort,13.3%
same,"Hypertension grade 3-4, No.",750 mg cohort,2
same,"Infection grade 1-2, %",750 mg cohort,26.7%
same,"Infection grade 1-2, No.",750 mg cohort,4
same,"Mucosal ulcers grade 1-2, %",750 mg cohort,13.3%
same,"Mucosal ulcers grade 1-2, No.",750 mg cohort,2
same,"Mucosal ulcers grade 3-4, %",750 mg cohort,13.3%
same,"Mucosal ulcers grade 3-4, No.",750 mg cohort,2
same,"Neutropenia grade 1-2, %",750 mg cohort,46.7%
same,"Neutropenia grade 1-2, No.",750 mg cohort,7
same,"Pain grade 1-2, %",750 mg cohort,26.7%
same,"Pain grade 1-2, No.",750 mg cohort,4
same,"Pain grade 3-4, %",750 mg cohort,13.3%
same,"Pain grade 3-4, No.",750 mg cohort,2
same,"Proteinuria grade 1-2, %",750 mg cohort,46.67%
same,"Proteinuria grade 1-2, No.",750 mg cohort,7
same,"Proteinuria grade 3-4, %",750 mg cohort,20%
same,"Proteinuria grade 3-4, No.",750 mg cohort,3
same,"Rash grade 1-2, %",750 mg cohort,6.7%
same,"Rash grade 1-2, No.",750 mg cohort,1
same,"Thrombocytopenia grade 1-2, %",750 mg cohort,40%
same,"Thrombocytopenia grade 1-2, No.",750 mg cohort,6
same,"Transaminase Increased grade 1-2, %",750 mg cohort,40%
same,"Transaminase Increased grade 1-2, No.",750 mg cohort,6
same,"Vomiting grade 1-2, %",750 mg cohort,26.7%
same,"Vomiting grade 1-2, No.",750 mg cohort,4
same,"Anemia grade 1-2, %",850 mg cohort,15.4%
same,"Anemia grade 1-2, No.",850 mg cohort,2
same,"Anemia grade 3-4, %",850 mg cohort,7.7%
same,"Anemia grade 3-4, No.",850 mg cohort,1
same,"Anorexia grade 1-2, %",850 mg cohort,7.7%
same,"Anorexia grade 1-2, No.",850 mg cohort,1
same,"Diarrhea grade 1-2, %",850 mg cohort,15.4%
same,"Diarrhea grade 1-2, No.",850 mg cohort,2
same,"Dyspnea grade 1-2, %",850 mg cohort,7.7%
same,"Dyspnea grade 1-2, No.",850 mg cohort,1
same,"Fatigue grade 1-2, %",850 mg cohort,30.8%
same,"Fatigue grade 1-2, No.",850 mg cohort,4
same,"Hand-Food Syndrome grade 1-2, %",850 mg cohort,30.8%
same,"Hand-Food Syndrome grade 1-2, No.",850 mg cohort,4
same,"Hand-Food Syndrome grade 3-4, %",850 mg cohort,15.4%
same,"Hand-Food Syndrome grade 3-4, No.",850 mg cohort,2
same,"Hemorrhage grade 1-2, %",850 mg cohort,7.7%
same,"Hemorrhage grade 1-2, No.",850 mg cohort,1
same,"Hoarseness grade 1-2, %",850 mg cohort,7.7%

# Reference: article PMC2984425, “Safety and pharmacokinetics of novel selective vascular endothelial growth factor receptor-2 inhibitor YN968D1 in patients with advanced malignancies” (BMC Cancer, 2010)
